According to patent US20200069648A1, “HALOALLYLAMINE PYRAZOLE DERIVATIVE INHIBITORS OF LYSYL OXIDASES AND USES THEREOF” (Pharmaxis Ltd., priority 2017, published 2020):
Where a name gives a salt, the structure may show the parent alone.

| SMILES | melting point |
| --- | --- |
| Cc1nn(C/C(F)=C/CN)c(C)c1Cc1ccc(S(C)(=O)=O)cc1 (as salt: hydrochloride) [Compound 4, (Z)-4-(3,5-dimethyl-4-(4-(methylsulfonyl)benzyl)-1H-pyrazol-1-yl)-3-fluorobut-2-en-1-amine hydrochloride] | 127 to 137 °C |
| Cc1nn(C/C(F)=C/CN)c(C)c1Cc1ccc(S(=O)(=O)N(C)C)c2ccccc12 (as salt: hydrochloride) [Compound 9, (Z)-4-((1-(4-amino-2-fluorobut-2-en-1-yl)-3,5-dimethyl-1H-pyrazol-4-yl)methyl)-N,N-dimethyl naphthalene-1-sulfonamide hydrochloride] | 70 to 80 °C |
| Cc1nn(C/C(F)=C/CN)c(C)c1Cc1ccc(C(=O)N(C)C)cc1 (as salt: hydrochloride) [Compound 14, (Z)-4-((1-(4-amino-2-fluorobut-2-en-1-yl)-3,5-dimethyl-1H-pyrazol-4-yl)methyl)-N,N-dimethylbenzamide hydrochloride] | 75 to 82 °C |
| CNS(=O)(=O)c1ccc(Cn2nc(C)c(C/C(F)=C/CN)c2C)c(Cl)c1 (as salt: hydrochloride) [Compound 20, (Z)-4-((4-(4-amino-2-fluorobut-2-en-1-yl)-3,5-dimethyl-1H-pyrazol-1-yl)methyl)-3-chloro-N-methylbenzenesulfonamide hydrochloride] | 80 to 86 °C |
| Cc1nn(Cc2ccc(S(C)(=O)=O)c(Cl)c2)c(C)c1C/C(F)=C/CN (as salt: hydrochloride) [Compound 24, (Z)-4-(1-(3-chloro-4-(methylsulfonyl)benzyl)-3,5-dimethyl-1H-pyrazol-4-yl)-3-fluorobut-2-en-1-amine hydrochloride] | 92 to 94 °C |
| CCOC(=O)c1c(Cc2ccc(S(=O)(=O)N(C)C)cc2)c(C)nn1C/C(F)=C/CN (as salt: hydrochloride) [Compound 27, (Z)-ethyl 1-(4-amino-2-fluorobut-2-enyl)-4-(4-(N,N-dimethylsulfamoyl)benzyl)-3-methyl-1H-pyrazole-5-carboxylate hydrochloride] | 157 to 159 °C |
| Cc1nn(C/C(F)=C/CN)c(C(=O)N(C)C)c1Cc1ccc(S(=O)(=O)N(C)C)cc1 (as salt: hydrochloride) [Compound 29, (Z)-1-(4-amino-2-fluorobut-2-enyl)-4-(4-(N,N-dimethylsulfamoyl)benzyl)-N,N,3-trimethyl-1H-pyrazole-5-carboxamide hydrochloride] | 77 to 80 °C |
| Cc1nn(C/C(F)=C/CN)c(C(=O)O)c1Cc1ccc(S(=O)(=O)N(C)C)cc1 (as salt: hydrochloride) [Compound 30, (Z)-1-(4-amino-2-fluorobut-2-enyl)-4-(4-(N,N-dimethylsulfamoyl)benzyl)-3-methyl-1H-pyrazole-5-carboxylic acid hydrochloride] | 164 to 166 °C |

Next, values leading:

| melting point | SMILES |
| --- | --- |
| 209 to 211 °C | Cc1nn(C/C(F)=C/CN)c(C)c1Cc1ccc(S(=O)(=O)N(C)C)cc1 (as salt: hydrochloride) [Compound 2, (Z)-4-((1-(4-amino-2-fluorobut-2-en-1-yl)-3,5-dimethyl-1H-pyrazol-4-yl)methyl)-N,N-dimethylbenzenesulfonamide hydrochloride] |
| 185 to 187 °C | Cc1nn(C/C(F)=C/CN)c(C)c1Cc1ccc(S(=O)(=O)N(C)C)cc1Cl (as salt: hydrochloride) [Compound 3, (Z)-4-((1-(4-amino-2-fluorobut-2-en-1-yl)-3,5-dimethyl-1H-pyrazol-4-yl)methyl)-3-chloro-N,N-dimethylbenzenesulfonamide hydrochloride] |
| 190 to 197 °C | Cc1nn(C/C(F)=C/CN)c(C)c1Cc1ccc(S(=O)(=O)N2CCOCC2)cc1 (as salt: hydrochloride) [Compound 6, (Z)-4-(3,5-dimethyl-4-(4-(morpholinosulfonyl)benzyl)-1H-pyrazol-1-yl)-3-fluorobut-2-en-1-amine hydrochloride] |
| 181 to 184 °C | Cc1nn(C/C(F)=C/CN)c(C)c1Cc1ccc(S(=O)(=O)N2CCCC2)cc1 (as salt: hydrochloride) [Compound 7, (Z)-4-(3,5-dimethyl-4-(4-(pyrrolidin-1-ylsulfonyl)benzyl)-1H-pyrazol-1-yl)-3-fluorobut-2-en-1-amine hydrochloride] |
| 180 to 185 °C | Cc1nn(Cc2ccc(S(=O)(=O)N(C)C)cc2)c(C)c1C/C(F)=C/CN (as salt: hydrochloride) [Compound 10, (Z)-4-((4-(4-amino-2-fluorobut-2-en-1-yl)-3,5-dimethyl-1H-pyrazol-1-yl)methyl)-N,N-dimethylbenzenesulfonamide hydrochloride] |
| 105 to 115 °C | Cc1nn(C/C(F)=C/CN)c(C)c1Cc1ccc(S(C)(=O)=O)c(Cl)c1 (as salt: hydrochloride) [Compound 16, (Z)-4-(4-(3-chloro-4-(methylsulfonyl)benzyl)-3,5-dimethyl-1H-pyrazol-1-yl)-3-fluorobut-2-en-1-amine hydrochloride] |
| 171 to 172 °C | CNS(=O)(=O)c1ccc(Cn2nc(C)c(C/C(F)=C/CN)c2C)c(C(F)(F)F)c1 (as salt: hydrochloride) [Compound 23, (Z)-4-((4-(4-amino-2-fluorobut-2-en-1-yl)-3,5-dimethyl-1H-pyrazol-1-yl)methyl)-N-methyl-3-(trifluoromethyl)benzenesulfonamide hydrochloride] |
| 100 to 103 °C | CNS(=O)(=O)c1cc(F)c(Cn2nc(C)c(C/C(F)=C/CN)c2C)cc1F (as salt: hydrochloride) [Compound 26, (Z)-4-((4-(4-amino-2-fluorobut-2-en-1-yl)-3,5-dimethyl-1H-pyrazol-1-yl)methyl)-2,5-difluoro-N-methylbenzenesulfonamide hydrochloride] |
| 262 to 264 °C | Cc1c(Cc2ccc(S(=O)(=O)N(C)C)cc2)c(C(=O)O)nn1C/C(F)=C/CN (as salt: hydrochloride) [Compound 31, (Z)-1-(4-amino-2-fluorobut-2-enyl)-4-(4-(N,N-dimethylsulfamoyl)benzyl)-5-methyl-1H-pyrazole-3-carboxylic acid hydrochloride] |
